# Laboratory results: paper PMC9006239, “Synthesis of potent and selective HDAC6 inhibitors led to unexpected opening of a quinazoline ring” (RSC Advances, 2022)
# Read-outs that look alike come from different tables or passages of the source.
# Experiments:
# human HDAC8 = target: T1, human HDAC8 (Homo sapiens, UniProt Q9BY41); assay: In vitro inhibitory activity on purified recombinant HDAC8 (fluorogenic peptide assay, Reaction Biology Corp.)
# T1 sequence (Q9BY41 1-377): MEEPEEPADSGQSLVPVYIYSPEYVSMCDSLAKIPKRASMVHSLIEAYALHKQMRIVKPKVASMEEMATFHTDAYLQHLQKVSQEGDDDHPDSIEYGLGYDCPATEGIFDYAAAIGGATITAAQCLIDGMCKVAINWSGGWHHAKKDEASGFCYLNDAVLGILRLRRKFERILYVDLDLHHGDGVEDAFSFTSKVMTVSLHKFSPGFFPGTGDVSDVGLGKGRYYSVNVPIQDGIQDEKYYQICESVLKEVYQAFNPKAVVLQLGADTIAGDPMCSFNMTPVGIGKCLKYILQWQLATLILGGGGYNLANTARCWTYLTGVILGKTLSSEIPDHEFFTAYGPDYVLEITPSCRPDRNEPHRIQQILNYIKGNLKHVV
# Experimental: (§1) In vitro tests on HDAC6, HDAC1 and HDAC8 were performed at Reaction Biology Corp. with modalities described below. […] The compounds were dissolved in DMSO and tested with 3-fold serial dilution starting from 100 μM. The enzymatic assays were performed by adding HDAC6 and the ligand solutions in the reaction buffer described above. […] IC50 values were calculated by using the GraphPad Prism 4 program based on a sigmoidal dose–response equation. The blank (DMSO) value concentration was entered as 1.00 × 10^−12 M for curve fitting.
# (§2) using the GraphPad Prism4 program based on a sigmoidal dose-response equation.
# human HDAC6 = target: T2, human HDAC6 (Homo sapiens, UniProt Q9UBN7); assay: In vitro inhibitory activity on purified recombinant HDAC6 (fluorogenic peptide assay, Reaction Biology Corp.); type: biochemical; conditions: for selectivity for HDAC6 with respect to HDAC1: HDAC6 vs HDAC1, from the IC50 values of Table 2; for selectivity for HDAC6 with respect to HDAC8: HDAC6 vs HDAC8, from the IC50 values of Table 2; for IC50: purified recombinant enzyme, RHKK-Ac-AMC substrate, singlet 10-dose, 3-fold serial dilution
# T2 construct: purchased Reaction Biology Corp. (contract assay)
# T2 sequence (Q9UBN7 1-1215): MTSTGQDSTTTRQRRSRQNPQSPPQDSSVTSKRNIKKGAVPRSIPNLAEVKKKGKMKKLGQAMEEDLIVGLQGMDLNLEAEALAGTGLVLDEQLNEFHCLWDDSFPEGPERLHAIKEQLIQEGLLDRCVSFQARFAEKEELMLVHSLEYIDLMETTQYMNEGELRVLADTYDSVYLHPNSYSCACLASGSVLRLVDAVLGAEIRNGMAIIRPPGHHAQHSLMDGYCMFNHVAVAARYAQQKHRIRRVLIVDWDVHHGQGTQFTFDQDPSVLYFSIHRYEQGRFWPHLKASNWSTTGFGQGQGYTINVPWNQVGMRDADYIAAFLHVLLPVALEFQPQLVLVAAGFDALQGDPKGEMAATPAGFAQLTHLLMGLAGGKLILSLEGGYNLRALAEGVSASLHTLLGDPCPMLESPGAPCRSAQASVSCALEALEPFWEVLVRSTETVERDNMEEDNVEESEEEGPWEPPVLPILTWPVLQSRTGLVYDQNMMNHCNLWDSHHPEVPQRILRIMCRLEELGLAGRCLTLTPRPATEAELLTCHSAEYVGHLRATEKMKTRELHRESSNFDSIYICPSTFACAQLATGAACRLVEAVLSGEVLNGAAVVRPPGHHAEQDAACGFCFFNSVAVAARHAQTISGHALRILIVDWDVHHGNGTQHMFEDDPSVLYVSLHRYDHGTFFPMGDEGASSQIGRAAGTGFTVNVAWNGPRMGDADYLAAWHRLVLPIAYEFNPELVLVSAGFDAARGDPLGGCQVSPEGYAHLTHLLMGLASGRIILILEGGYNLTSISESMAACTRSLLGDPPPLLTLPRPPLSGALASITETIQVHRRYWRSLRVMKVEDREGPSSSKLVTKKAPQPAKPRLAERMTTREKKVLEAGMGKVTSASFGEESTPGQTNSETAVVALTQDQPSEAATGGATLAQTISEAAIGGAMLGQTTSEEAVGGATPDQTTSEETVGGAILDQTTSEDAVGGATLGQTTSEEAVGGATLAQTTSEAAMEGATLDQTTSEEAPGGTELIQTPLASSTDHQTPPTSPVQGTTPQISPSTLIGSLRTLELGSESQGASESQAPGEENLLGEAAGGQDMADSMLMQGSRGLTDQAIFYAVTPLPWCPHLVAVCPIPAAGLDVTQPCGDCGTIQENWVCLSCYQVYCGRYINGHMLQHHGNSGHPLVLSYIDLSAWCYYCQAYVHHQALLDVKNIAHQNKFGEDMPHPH
# Experimental: Figure S1. […] All compounds were tested in singlet
# IC50 values were calculated
# Figure S2. […] All compounds were tested in singlet
# Figure S3. […] All compounds were tested in singlet
# human HDAC1 = human HDAC1 (Homo sapiens, UniProt Q13547); assay: In vitro inhibitory activity on purified recombinant HDAC1 (fluorogenic peptide assay, Reaction Biology Corp.)
# Experimental: as §1, §2
# HDAC6 = conditions: cited from earlier work
# [1] = known quinazoline-capped inhibitors, Fig. 1
# human HDAC1, sequence (Q13547 whole entry): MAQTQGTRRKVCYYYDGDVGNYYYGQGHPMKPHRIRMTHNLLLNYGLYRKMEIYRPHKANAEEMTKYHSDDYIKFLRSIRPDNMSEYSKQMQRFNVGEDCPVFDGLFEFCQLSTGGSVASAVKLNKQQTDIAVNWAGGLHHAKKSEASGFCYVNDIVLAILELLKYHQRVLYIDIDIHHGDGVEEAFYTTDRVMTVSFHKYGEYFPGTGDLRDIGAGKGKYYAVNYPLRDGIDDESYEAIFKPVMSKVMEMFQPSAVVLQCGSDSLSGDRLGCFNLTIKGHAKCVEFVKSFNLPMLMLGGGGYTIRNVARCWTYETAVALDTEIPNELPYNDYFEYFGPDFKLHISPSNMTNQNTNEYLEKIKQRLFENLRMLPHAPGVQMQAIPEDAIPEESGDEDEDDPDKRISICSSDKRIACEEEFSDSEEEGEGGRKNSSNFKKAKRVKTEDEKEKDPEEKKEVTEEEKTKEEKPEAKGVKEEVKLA
SMILES,IC50 (human HDAC8) [nM],melting point,selectivity for HDAC6 with respect to HDAC1 (human HDAC6),selectivity for HDAC6 with respect to HDAC8 (human HDAC6),IC50 (human HDAC6) [nM],IC50 (human HDAC1) [nM],IC50 (HDAC6; [1]) [nM],other results
"Nc1nc2c3ccc(Cc4ccc(C(=O)NO)cc4)cc3nc(Cc3ccc4c(c3)OCO4)n2n1 [Compound 11a, 4-((2-Amino-5-(benzo[d][1,3]dioxol-5-ylmethyl)-[1,2,4]triazolo[1,5-c]quinazolin-8-yl)methyl)-N-hydroxybenzamide]",653,< 267 °C (dec.),more than 12 000 fold,> 1000 fold,0.5,6080,,
COc1ccc(N(C)c2nc(C)nc3ccccc23)cc1OCCCC(=O)NO [Compound 1],,,,,,,17,
COc1cc2nc(NCCCCCCC(=O)NO)nc(NC3CCN(C(C)C)CC3)c2cc1OC [Compound 5],,,,,,,,IC50 (HDAC6; most active quinazoline inhibitor reported so far): 12 nM
COc1ccc(N(C)c2nc(C)nc3ccccc23)cc1NC(=O)CCC(=O)NO [Compound 2],,,,,,,16,
COc1ccc(N(C)c2nc(C)nc3ccccc23)cc1NC(=O)CCCC(=O)NO [Compound 3],,,,,,,35,
"Nc1n[nH]c(-c2cc(Cc3ccc(C(=O)NO)cc3)ccc2NC(=O)Cc2ccc3c(c2)OCO3)n1 [Compound 18, 4-(3-(3-Amino-1H-1,2,4-triazol-5-yl)-4-(2-(benzo[d][1,3]dioxol-5-yl)acetamido)benzyl)-N-hydroxybenzamide]",1560,< 264 °C (dec.),> 18 000 fold,> 15 000 fold,0.1,1820,,
